From patent publication US20110039721A1, “METHOD FOR PREDICTION ABOUT CARCINOGENICITY OF SUBSTANCE IN RODENT” (Chemicals Evaluation and Research Institute, priority 2007, published 2011)

Assays:
[1] = tested on: mRNA expressed from the genes (A) to (D) in rat liver; test: Behavior of genes (mRNA expression level, oligo-DNA microarray) in rat liver after 28-day oral administration; format: in vivo
In short: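 Groups of four male F344 SPF rats aged 5 weeks are gavaged once a day for 28 days with test chemical in solvent or with solvent alone at equal volume. Total RNA comes from liver taken on day 28. Fold change of 1.5 or 1/1.5 versus control, directionally consistent, defines significance.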

[2] = tested on: liver; conditions: classification of the substance (Cr+/Cr−); cited from earlier work
[3] = tested on: rodent; conditions: classification of the substance (C+/C−); cited from earlier work
[4] = classification of the substance (M+/M−); cited from earlier work
[5] = gene group (A), Unigene No. Rn.167075
[6] = gene group (C), Unigene No. Rn.120914

Cl.Cl.Nc1ccc(N)cc1 [TS059, p-Phenylenediamine 2HCl]
Behavior of gene caused by administration of chemical substance, Gene No. 4846 ([1]; gene group (A), Unigene No. Rn.144554): −
Behavior of gene caused by administration of chemical substance, Gene No. 2026 [1, 5]: −
Behavior of gene caused by administration of chemical substance, Gene No. 4218 [1, 5]: −
Behavior of gene caused by administration of chemical substance, Gene No. 6182 ([1]; gene group (A), Unigene No. Rn.5834): −
Behavior of gene caused by administration of chemical substance, Gene No. 5600 ([1]; gene group (A), Unigene No. Rn.9836): −
Behavior of gene caused by administration of chemical substance, Gene No. 1494 ([1]; gene group (B), Unigene No. Rn.1430): −
Behavior of gene caused by administration of chemical substance, Gene No. 2045 ([1]; gene group (B), Unigene No. Rn.19329): −
Behavior of gene caused by administration of chemical substance, Gene No. 2203 ([1]; gene group (B), Unigene No. Rn.21240): −
Behavior of gene caused by administration of chemical substance, Gene No. 533 ([1]; gene group (C), Unigene No. Rn.106184): −
Behavior of gene caused by administration of chemical substance, Gene No. 725 ([1]; gene group (C), Unigene No. Rn.108075): −
Behavior of gene caused by administration of chemical substance, Gene No. 1163 ([1]; gene group (C), Unigene No. Rn.11766): −
Behavior of gene caused by administration of chemical substance, Gene No. 4973 ([1]; gene group (C), Unigene No. Rn.118529): +
Behavior of gene caused by administration of chemical substance, Gene No. 4095 ([1]; gene group (C), Unigene No. Rn.119024): +
Behavior of gene caused by administration of chemical substance, Gene No. 1334 [1, 6]: +
Behavior of gene caused by administration of chemical substance, Gene No. 6620 [1, 6]: +
Behavior of gene caused by administration of chemical substance, Gene No. 6303 ([1]; gene group (C), Unigene No. Rn.123063): −
Behavior of gene caused by administration of chemical substance, Gene No. 5878 ([1]; gene group (C), Unigene No. Rn.143213): −
Behavior of gene caused by administration of chemical substance, Gene No. 1131 ([1]; gene group (C), Unigene No. Rn.144946): −
Behavior of gene caused by administration of chemical substance, Gene No. 1562 ([1]; gene group (C), Unigene No. Rn.14744): +
Behavior of gene caused by administration of chemical substance, Gene No. 1741 ([1]; gene group (C), Unigene No. Rn.1647): +
Behavior of gene caused by administration of chemical substance, Gene No. 893 ([1]; gene group (C), Unigene No. Rn.164817): +
Behavior of gene caused by administration of chemical substance, Gene No. 6026 ([1]; gene group (C), Unigene No. Rn.167685): −
Behavior of gene caused by administration of chemical substance, Gene No. 154 ([1]; gene group (C), Unigene No. Rn.185941): +
Behavior of gene caused by administration of chemical substance, Gene No. 1993 ([1]; gene group (C), Unigene No. Rn.18728): +
Behavior of gene caused by administration of chemical substance, Gene No. 813 ([1]; gene group (C), Unigene No. Rn.201760): −
Behavior of gene caused by administration of chemical substance, Gene No. 2494 ([1]; gene group (C), Unigene No. Rn.23969): −
Behavior of gene caused by administration of chemical substance, Gene No. 2546 ([1]; gene group (C), Unigene No. Rn.24561): +
Behavior of gene caused by administration of chemical substance, Gene No. 3776 ([1]; gene group (C), Unigene No. Rn.43232): +
Behavior of gene caused by administration of chemical substance, Gene No. 3929 ([1]; gene group (C), Unigene No. Rn.4620): +
Behavior of gene caused by administration of chemical substance, Gene No. 1119 ([1]; gene group (C), Unigene No. Rn.9757): +
Behavior of gene caused by administration of chemical substance, Gene No. 6742 ([1]; gene group (C), Unigene No. Rn.9779): −
Behavior of gene caused by administration of chemical substance, Gene No. 5634 ([1]; gene group (C), Unigene No. Rn.9862): +
Behavior of gene caused by administration of chemical substance, Gene No. 5726 ([1]; gene group (D), Unigene No. Rn.9939): +
Liver carcinogenicity [2]: Cr−
Carcinogenicity [3]: C−
Mutagenicity by Ames test [4]: M+
